Test results taken from ChEMBL document CHEMBL1773043, “Platensimycin and platencin congeners from Streptomyces platensis” (J Nat Prod, 2011).
Activity calls are given as the source filed them.

Assays:
[1] = tested on: Haemophilus influenzae; assay: Antibacterial activity against Haemophilus influenzae at 64 ug/ml after 20 hrs; assay type: functional, organism-based
[2] = tested on: Enterococcus faecalis; assay: Antibacterial activity against Enterococcus faecalis at 64 ug/ml after 20 hrs; assay type: functional, organism-based
[3] = tested on: Streptococcus pneumoniae; assay: Antibacterial activity against Streptococcus pneumoniae at 64 ug/ml after 20 hrs; assay type: functional, organism-based
[4] = tested on: Escherichia coli; assay: Antibacterial activity against Escherichia coli at 64 ug/ml after 20 hrs; assay type: functional, organism-based
[5] = target: T1, 3-oxoacyl-[acyl-carrier-protein] synthase 2 (Staphylococcus aureus) (UniProt Q5TKS0); assay: Inhibition of Staphylococcus aureus […] assessed as [2-14C]-malonyl CoA incorporation after 90 mins by cell free-based scintillation counting
T1 sequence (whole entry): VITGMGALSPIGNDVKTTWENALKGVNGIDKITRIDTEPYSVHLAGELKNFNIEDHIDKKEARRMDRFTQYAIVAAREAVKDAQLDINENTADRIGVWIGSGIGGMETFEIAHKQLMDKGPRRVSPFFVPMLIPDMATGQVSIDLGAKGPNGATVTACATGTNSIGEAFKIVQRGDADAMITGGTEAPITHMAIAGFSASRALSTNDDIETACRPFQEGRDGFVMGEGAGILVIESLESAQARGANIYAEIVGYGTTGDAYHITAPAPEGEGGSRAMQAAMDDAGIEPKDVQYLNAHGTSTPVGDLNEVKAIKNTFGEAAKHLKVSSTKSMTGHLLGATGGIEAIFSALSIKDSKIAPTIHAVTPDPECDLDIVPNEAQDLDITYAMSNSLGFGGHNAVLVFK

[6] = tested on: Enterococcus faecium; assay: Antibacterial activity against Enterococcus faecium at 64 ug/ml after 20 hrs; assay type: functional, organism-based
[7] = tested on: Staphylococcus aureus; assay: Antibacterial activity against Staphylococcus aureus at 64 ug/ml after 20 hrs; assay type: functional, organism-based

COC(=O)c1ccc(O)c(NC(=O)CC[C@]2(C)C(=O)C=C[C@]34CC5C[C@H](O[C@]5(C)C3O)C42)c1O (some centres undefined)
inactive: Activity [1] | Activity [2] | Activity [3] | Activity [4] | inhibition [5] | Activity [6] | Activity [7]

C=C1CC23C=CC(=O)[C@@](C)(CCC(=O)OC)C2CC1[C@@H](O)C3 (some centres undefined)
inactive: Activity [1] | Activity [2] | Activity [3] | Activity [4] | inhibition [5] | Activity [6] | Activity [7]

C[C@@]1(O)CC23C=CC(=O)[C@@](C)(CCC(=O)Nc4c(O)ccc(C(=O)O)c4O)C2CC1CC3 (some centres undefined)
inactive: Activity [1] | Activity [2] | Activity [3] | Activity [4] | inhibition [5] | Activity [6] | Activity [7]

C[C@@]1(CCC(=O)Nc2c(O)ccc(C(=O)O)c2O)C(=O)C=CC23CC4CC(OC4(CO)C2)C31 (some centres undefined)
inactive: Activity [1] | Activity [2] | Activity [3] | Activity [4] | inhibition [5] | Activity [6] | Activity [7]

C=C1C2CCC3(C=CC(=O)[C@@](C)(CCC(=O)Nc4c(O)ccc(C(=O)OC)c4O)C3C2)[C@H]1O (some centres undefined)
inactive: Activity [1] | Activity [2] | Activity [3] | Activity [4] | inhibition [5] | Activity [6] | Activity [7]

C=C1CC23C=CC(=O)[C@@](C)(CCC(=O)Nc4c(O)ccc(C(=O)OC)c4O)C2CC1C[C@H]3O (some centres undefined)
inactive: Activity [1] | Activity [2] | Activity [3] | Activity [4] | inhibition [5] | Activity [6] | Activity [7]

C/C(=C\CC[C@]1(C)C(=O)C=C[C@]23CC4C[C@H](O[C@]4(C)C2)C31)C(=O)N[C@@H](CCC(N)=O)C(=O)O (some centres undefined)
inactive: Activity [1] | Activity [2] | Activity [3] | Activity [4] | inhibition [5] | Activity [6] | Activity [7]

COC(=O)CC[C@]1(C)C(=O)C=C[C@]23CC4C[C@H](O[C@]4(C)[C@@H]2O)C13 (some centres undefined)
inactive: Activity [1] | Activity [2] | Activity [3] | Activity [4] | inhibition [5] | Activity [6] | Activity [7]

C[C@@]1(CCC(=O)Nc2c(O)ccc(C(=O)O)c2O)C(=O)C=CC23CC(CCC21)C(O)(CO)C3 (some centres undefined)
inactive: Activity [1] | Activity [2] | Activity [3] | Activity [4] | inhibition [5] | Activity [6] | Activity [7]

COC(=O)c1ccc(O)c(NC(=O)CC[C@]2(C)C(=O)C=CC34C[C@@]5(C)O[C@@H](CC5[C@H]3O)C42)c1O (some centres undefined)
inactive: Activity [1] | Activity [2] | Activity [3] | Activity [4] | inhibition [5] | Activity [6] | Activity [7]

C=C1CC23C=CC(=O)[C@@](C)(CCC(=O)Nc4c(O)ccc(C(=O)OC)c4O)C2CC1[C@@H](O)C3 (some centres undefined)
inactive: Activity [1] | Activity [2] | Activity [3] | Activity [4] | inhibition [5] | Activity [6] | Activity [7]

C=C1C2CCC3(C=CC(=O)[C@@](C)(CCC(=O)Nc4c(O)ccc(C(=O)O)c4O)C3C2)[C@H]1O (some centres undefined)
inactive: Activity [1] | Activity [2] | Activity [3] | Activity [4] | inhibition [5] | Activity [6] | Activity [7]
